According to ChEMBL document CHEMBL6114980, “Single or double lipid-modified ultra-short antimicrobial peptides for treating infections caused by resistant bacteria” (Eur J Med Chem, 2025):

Legend:
Format in all cases: functional
[1] = test system: Acinetobacter baumannii; assay: Antibacterial activity against Acinetobacter baumannii ATCC 19606 assessed as reduction in bacterial growth incubated for 18 to 24 hrs by broth microdilution method; conditions: time 18-24 hrs
[2] = test system: Klebsiella pneumoniae; assay: Antibacterial activity against Klebsiella pneumoniae ATCC 700603 assessed as reduction in bacterial growth incubated for 18 to 24 hrs by broth microdilution method; conditions: time 18-24 hrs
[3] = test system: Escherichia coli; assay: Antibacterial activity against Escherichia coli ATCC 25922 assessed as reduction in bacterial growth incubated for 18 to 24 hrs by broth microdilution method; conditions: time 18-24 hrs
[4] = test system: Pseudomonas aeruginosa; assay: Antibacterial activity against Pseudomonas aeruginosa ATCC 27853 assessed as reduction in bacterial growth incubated for 18 to 24 hrs by broth microdilution method; conditions: time 18-24 hrs
[5] = test system: Staphylococcus aureus; assay: Antibacterial activity against methicillin-resistant Staphylococcus aureus ATCC 33591 assessed as reduction in bacterial growth incubated for 18 to 24 hrs by broth microdilution method; conditions: time 18-24 hrs
[6] = test system: Staphylococcus aureus; assay: Antibacterial activity against methicillin-resistant Staphylococcus aureus 75 assessed as reduction in bacterial growth incubated for 18 to 24 hrs by broth microdilution method; conditions: time 18-24 hrs
[7] = test system: Staphylococcus aureus; assay: Antibacterial activity against Staphylococcus aureus 125 assessed as reduction in bacterial growth incubated for 18 to 24 hrs by broth microdilution method; conditions: time 18-24 hrs
[8] = test system: Staphylococcus aureus; assay: Antibacterial activity against Staphylococcus aureus 794 assessed as reduction in bacterial growth incubated for 18 to 24 hrs by broth microdilution method; conditions: time 18-24 hrs
[9] = test system: Enterococcus faecalis; assay: Antibacterial activity against Enterococcus faecalis ATCC 29212 assessed as reduction in bacterial growth incubated for 18 to 24 hrs by broth microdilution method; conditions: time 18-24 hrs
[10] = test system: Staphylococcus epidermidis; assay: Antibacterial activity against Staphylococcus epidermidis ATCC 12228 assessed as reduction in bacterial growth incubated for 18 to 24 hrs by broth microdilution method; conditions: time 18-24 hrs
[11] = test system: Staphylococcus aureus; assay: Antibacterial activity against Staphylococcus aureus ATCC 25923 assessed as reduction in bacterial growth incubated for 18 to 24 hrs by broth microdilution method; conditions: time 18-24 hrs
[12] = test system: Acinetobacter baumannii; assay: Antibacterial activity against Acinetobacter baumannii 5444 assessed as reduction in bacterial growth incubated for 18 to 24 hrs by broth microdilution method; conditions: time 18-24 hrs
[13] = test system: Acinetobacter baumannii; assay: Antibacterial activity against Acinetobacter baumannii 92359 assessed as reduction in bacterial growth incubated for 18 to 24 hrs by broth microdilution method; conditions: time 18-24 hrs
[14] = test system: Escherichia coli; assay: Antibacterial activity against Escherichia coli 850 assessed as reduction in bacterial growth incubated for 18 to 24 hrs by broth microdilution method; conditions: time 18-24 hrs
[15] = test system: Escherichia coli; assay: Antibacterial activity against Escherichia coli 780 assessed as reduction in bacterial growth incubated for 18 to 24 hrs by broth microdilution method; conditions: time 18-24 hrs
[16] = test system: Pseudomonas aeruginosa; assay: Antibacterial activity against Pseudomonas aeruginosa 124 assessed as reduction in bacterial growth incubated for 18 to 24 hrs by broth microdilution method; conditions: time 18-24 hrs
[17] = test system: Pseudomonas aeruginosa; assay: Antibacterial activity against Pseudomonas aeruginosa 6434N assessed as reduction in bacterial growth incubated for 18 to 24 hrs by broth microdilution method; conditions: time 18-24 hrs
[18] = test system: Staphylococcus aureus; assay: Antibacterial activity against Staphylococcus aureus assessed as reduction in survival bacterial growth in presence of NaCl measured after 18 to 24 hrs (reference value: 8 microM); conditions: time 18-24 hrs
[19] = test system: Staphylococcus aureus; assay: Antibacterial activity against Staphylococcus aureus assessed as reduction in survival bacterial growth in presence of Mgcl2 measured after 18 to 24 hrs (reference value: 8 microM); conditions: time 18-24 hrs
[20] = test system: Staphylococcus aureus; assay: Antibacterial activity against Staphylococcus aureus assessed as reduction in survival bacterial growth in presence of ZnCl2 measured after 18 to 24 hrs (reference value: 8 microM); conditions: time 18-24 hrs
[21] = test system: Staphylococcus aureus; assay: Antibacterial activity against Staphylococcus aureus assessed as reduction in survival bacterial growth in presence of KCl measured after 18 to 24 hrs (reference value: 8 microM); conditions: time 18-24 hrs
[22] = test system: Staphylococcus aureus; assay: Antibacterial activity against Staphylococcus aureus assessed as reduction in survival bacterial growth in presence of FeCl3 measured after 18 to 24 hrs (reference value: 8 microM); conditions: time 18-24 hrs
[23] = test system: Escherichia coli; assay: Antibacterial activity against Escherichia coli assessed as reduction in survival bacterial growth in presence of NaCl measured after 18 to 24 hrs (reference value: 2 microM); conditions: time 18-24 hrs
[24] = test system: Escherichia coli; assay: Antibacterial activity against Escherichia coli assessed as reduction in survival bacterial growth in presence of MgCl2 measured after 18 to 24 hrs (reference value: 2 microM); conditions: time 18-24 hrs
[25] = test system: Escherichia coli; assay: Antibacterial activity against Escherichia coli assessed as reduction in survival bacterial growth in presence of ZnCl2 measured after 18 to 24 hrs (reference value: 2 microM); conditions: time 18-24 hrs
[26] = test system: Escherichia coli; assay: Antibacterial activity against Escherichia coli assessed as reduction in survival bacterial growth in presence of KCl measured after 18 to 24 hrs (reference value: 2 microM); conditions: time 18-24 hrs
[27] = test system: Escherichia coli; assay: Antibacterial activity against Escherichia coli assessed as reduction in survival bacterial growth in presence of FeCl3 measured after 18 to 24 hrs (reference value: 2 microM); conditions: time 18-24 hrs
[28] = test system: Escherichia coli; assay: Antibacterial activity against Escherichia coli assessed as reduction in survival bacterial growth by measuring fold change in presence of ZnCl2 measured after 18 to 24 hrs; conditions: time 18-24 hrs
[29] = test system: Escherichia coli; assay: Antibacterial activity against Escherichia coli assessed as reduction in survival bacterial growth by measuring fold change in presence of MgCl2 measured after 18 to 24 hrs; conditions: time 18-24 hrs
[30] = test system: Staphylococcus aureus; assay: Antibacterial activity against Staphylococcus aureus assessed as reduction in survival bacterial growth by measuring fold change in presence of MgCl2 measured after 18 to 24 hrs; conditions: time 18-24 hrs
[31] = test system: Escherichia coli; assay: Antibacterial activity against Escherichia coli assessed as reduction in survival bacterial growth by measuring fold change in presence of NaCl measured after 18 to 24 hrs; conditions: time 18-24 hrs
[32] = test system: Staphylococcus aureus; assay: Antibacterial activity against Staphylococcus aureus assessed as reduction in survival bacterial growth by measuring fold change in presence of NaCl measured after 18 to 24 hrs; conditions: time 18-24 hrs
[33] = test system: Escherichia coli; assay: Bactericidal activity against Escherichia coli 25922 assessed as eradication of bacteria at 2 times MIC measured within 1 hr by time-kill assay relative to control
[34] = test system: Klebsiella pneumoniae; assay: Antibacterial activity against Klebsiella pneumoniae ATCC 700603 infected in male BALB/c mouse lung infection model assessed as reduction in bacterial load at 5 mg/kg, ip measured after 6 to 36 hrs (reference value: 1.77 10^6CFU/mg); conditions: time 6-36 hrs

CC(C)CCCCC(=O)N[C@@H](CCN)C(=O)N[C@H](C(=O)N[C@@H](CCN)C(=O)N[C@H]1CCNC(=O)[C@H]([C@@H](C)O)NC(=O)[C@H](CCN)NC(=O)[C@H](CCN)NC(=O)[C@H](CC(C)C)NC(=O)[C@@H](Cc2ccccc2)NC(=O)[C@H](CCN)NC1=O)[C@@H](C)O.CC[C@H](C)CCCCC(=O)N[C@@H](CCN)C(=O)N[C@H](C(=O)N[C@@H](CCN)C(=O)N[C@H]1CCNC(=O)[C@H]([C@@H](C)O)NC(=O)[C@H](CCN)NC(=O)[C@H](CCN)NC(=O)[C@H](CC(C)C)NC(=O)[C@@H](Cc2ccccc2)NC(=O)[C@H](CCN)NC1=O)[C@@H](C)O
2: fold change (FC) [28] | fold change (FC) [29] | fold change (FC) [30]
100%: Activity [33]
2 µM: MIC [3] | MIC [17] | MIC [23] | MIC [24] | MIC [26] | MIC [27]
128 µM: MIC [9] | MIC [18]
8 µM: MIC [7] | MIC [10] | MIC [11] | MIC [20] | MIC [21] | MIC [22]
32 µM: MIC [12] | MIC [13]
1.54 10^4CFU/mg: Activity [34]
1 µM: MIC [25]
16 µM: MIC [5] | MIC [6] | MIC [8] | MIC [16] | MIC [19]
4 µM: MIC [1] | MIC [2] | MIC [4] | MIC [14] | MIC [15]
16: fold change (FC) [31] | fold change (FC) [32]
